Patent publication US10934282B2, “Heteroaromatic modulators of the retinoid-related orphan receptor gamma” (LEO PHARMA A/S, priority 2016, dated 2021)

What was measured:
[1] = molecular target: T1, human RORgt nuclear receptor (RORgT ligand binding domain protein) (Homo sapiens, UniProt P51449); test: ROR-gamma binding assay (Scintillation Proximity Assay, displacement of [3H]-25-hydroxycholesterol); conditions: EC50, SPA, 15 nM [3H]-25-Hydroxycholesterol, RORgT LBD 12 nM
T1 construct: purchased Proteros Biostructures GmbH
T1 sequence (P51449 with tags, fused parts or gaps): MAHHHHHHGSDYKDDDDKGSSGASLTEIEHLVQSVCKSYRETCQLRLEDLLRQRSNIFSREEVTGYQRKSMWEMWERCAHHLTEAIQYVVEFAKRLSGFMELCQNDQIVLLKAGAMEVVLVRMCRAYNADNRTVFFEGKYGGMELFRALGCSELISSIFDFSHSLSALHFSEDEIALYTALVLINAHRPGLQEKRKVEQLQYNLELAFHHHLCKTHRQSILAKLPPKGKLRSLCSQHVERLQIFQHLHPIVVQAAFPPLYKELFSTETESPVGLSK
Outline: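 SPA competition of compound against 15 nM [3H]-25-hydroxycholesterol for His/FLAG-tagged human RORγt LBD (12 nM) on His-tag PVT beads, in 50 mM HEPES pH 7.4, 150 mM NaCl, 5 mM MgCl2, 0.1% BSA, 0.5% DMSO. 30 min preincubation, then ≥4 h at room temperature in darkness; EC50 by four-parameter fit.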

[2] = tested on: IL-17A levels in human peripheral blood; test: tissue or blood; assay type: cell-based; conditions: 72 h, read-out: Human Whole blood IL-17A (nM)
[3] = tested on: IL-17A in Human peripheral mononuclear cells; test: Human PBMC IL-17A assay; assay type: cell-based; conditions: 72 h, EC50, antiCD3/antiCD28-coated beads, 3 days, alpha-LISA
Outline: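 Cryopreserved human PBMC (130,000/well) stimulated with anti-CD3/anti-CD28-coated beads (1 cell per bead) in RPMI-1640 with 10% bovine calf serum, compounds at 0.1% DMSO, for 3 days. Supernatant IL-17A measured by AlphaLISA, viability by PrestoBlue; EC50 from 4-parameter non-linear regression.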

Cc1c(CN2CCN(C(=O)OC(C)C)[C@@H](C)C2)cc(Cl)cc1Nc1nnc([C@H]2C[C@H](O)C2)o1 [Example 64, isopropyl (2S)-4-[[5-chloro-3-[[5-(3-hydroxycyclobutyl)-1,3,4-oxadiazol-2-yl]amino]-2-methyl-phenyl]methyl]-2-methyl-piperazine-1-carboxylate]
EC50 [1]: 0.0506 µM
EC50 [2]: 191 nM
EC50 [3]: 0.131 µM

Cc1c(CN2CCN(C(=O)OC(C)C)[C@@H](C)C2)cc(Cl)cc1Nc1nnc([C@@H](C)O)o1 [Example 39, isopropyl (2S)-4-[[5-chloro-3-[[5-[(1R)-1-hydroxyethyl]-1,3,4-oxadiazol-2-yl]amino]-2-methyl-phenyl]methyl]-2-methyl-piperazine-1-carboxylate]
EC50 [1]: 0.0292 µM
EC50 [2]: 377 nM
EC50 [3]: 0.0382 µM

Cc1c(CN2CCN(C(=O)OC(C)C)[C@@H](C)C2)cc(Cl)cc1Nc1nnc([C@H](C)O)o1 [Example 63, isopropyl (2S)-4-[[5-chloro-3-[[5-[(1S)-1-hydroxyethyl]-1,3,4-oxadiazol-2-yl]amino]-2-methyl-phenyl]methyl]-2-methyl-piperazine-1-carboxylate]
EC50 [1]: 0.0348 µM
EC50 [2]: 187 nM
EC50 [3]: 0.0621 µM

Cc1cc(CN2CCN(C(=O)C3CCC3)[C@@H](C)C2)c(C)c(Nc2nnc([C@H](C)O)o2)c1 [Example 20, cyclobutyl-[(2S)-4-[[3-[[5-[(1S)-1-hydroxyethyl]-1,3,4-oxadiazol-2-yl]amino]-2,5-dimethyl-phenyl]methyl]-2-methyl-piperazin-1-yl]methanone]
EC50 [1]: 0.113 µM
EC50 [2]: 259 nM
EC50 [3]: 0.189 µM

Cc1cc(CN2CCN(C(=O)OC(C)C)[C@@H](C)C2)c(C)c(Nc2nnc(C[C@H](C)O)o2)c1 [Example 60, isopropyl (2S)-4-[[3-[[5-[(2S)-2-hydroxypropyl]-1,3,4-oxadiazol-2-yl]amino]-2,5-dimethyl-phenyl]methyl]-2-methyl-piperazine-1-carboxylate]
EC50 [1]: 0.0383 µM
EC50 [2]: 195 nM
EC50 [3]: 0.106 µM

Cc1cc(CN2CCN(C(=O)C3CCC3)[C@@H](C)C2)c(C)c(Nc2nnc([C@@H](C)O)o2)c1 [Example 19, cyclobutyl-[(2S)-4-[[3-[[5-[(1R)-1-hydroxyethyl]-1,3,4-oxadiazol-2-yl]amino]-2,5-dimethyl-phenyl]methyl]-2-methyl-piperazin-1-yl]methanone]
EC50 [1]: 0.0923 µM
EC50 [2]: 216 nM
EC50 [3]: 0.117 µM

Cc1cc(CN2CCN(C(=O)OC(C)C)[C@@H](C)C2)c(C)c(Nc2nnc([C@@H](C)O)o2)c1 [Example 56, isopropyl (2S)-4-[[3-[[5-[(1R)-1-hydroxyethyl]-1,3,4-oxadiazol-2-yl]amino]-2,5-dimethyl-phenyl]methyl]-2-methyl-piperazine-1-carboxylate]
EC50 [1]: 0.0365 µM
EC50 [2]: 92.2 nM
EC50 [3]: 0.0519 µM

Cc1cc(CN2CCN(C(=O)OC(C)C)[C@@H](C)C2)c(C)c(Nc2nnc([C@@H](C)N)o2)c1 [Example 68, isopropyl (2S)-4-[[3-[[5-[(1R)-1-aminoethyl]-1,3,4-oxadiazol-2-yl]amino]-2,5-dimethyl-phenyl]methyl]-2-methyl-piperazine-1-carboxylate]
EC50 [1]: 0.103 µM
EC50 [2]: 552 nM
EC50 [3]: 0.182 µM

Cc1cc(CN2CCN(C(=O)OC(C)(C)C)[C@@H](C)C2)c(C)c(Nc2nnc(-c3ccno3)o2)c1 [Example 32, tert-butyl (2S)-4-[[3-[(5-isoxazol-5-yl-1,3,4-oxadiazol-2-yl)amino]-2,5-dimethyl-phenyl]methyl]-2-methyl-piperazine-1-carboxylate]
EC50 [1]: 0.0264 µM
EC50 [2]: 392 nM
EC50 [3]: 0.101 µM

Cc1c(CN2CCN(C(=O)c3ccccc3)[C@@H](C)C2)cc(Cl)cc1Nc1nnc(C2(O)CC2)o1 [Example 6, [(2S)-4-[[5-chloro-3-[[5-(1-hydroxycyclopropyl)-1,3,4-oxadiazol-2-yl]amino]-2-methyl-phenyl]methyl]-2-methyl-piperazin-1-yl]-phenyl-methanone]
EC50 [1]: 0.0317 µM
EC50 [2]: 504 nM
EC50 [3]: 0.234 µM

Cc1cc(CN2CCN(C(=O)OC(C)C)[C@@H](C)C2)c(C)c(Nc2nnc([C@@H](N)CO)o2)c1 [Example 36, isopropyl (2S)-4-[[3-[[5-[(1S)-1-amino-2-hydroxy-ethyl]-1,3,4-oxadiazol-2-yl]amino]-2,5-dimethyl-phenyl]methyl]-2-methyl-piperazine-1-carboxylate]
EC50 [1]: 0.0841 µM
EC50 [2]: 451 nM
EC50 [3]: 0.366 µM

Cc1cc(CN2CCN(C(=O)OC(C)C)[C@@H](C)C2)c(C)c(Nc2nnc([C@H]3NCC[C@H]3O)o2)c1 [Example 77, isopropyl (2S)-4-[[3-[[5-[(2S,3R)-3-hydroxypyrrolidin-2-yl]-1,3,4-oxadiazol-2-yl]amino]-2,5-dimethyl-phenyl]methyl]-2-methyl-piperazine-1-carboxylate]
EC50 [1]: 0.0612 µM
EC50 [2]: 368 nM
EC50 [3]: 0.18 µM

Cc1c(CN2CCN(C(=O)C3CCC3)[C@@H](C)C2)cc(C(F)F)cc1Nc1nnc([C@H](C)O)o1 [Example 27, cyclobutyl-[(2S)-4-[[5-(difluoromethyl)-3-[[5-[(1S)-1-hydroxyethyl]-1,3,4-oxadiazol-2-yl]amino]-2-methyl-phenyl]methyl]-2-methyl-piperazin-1-yl]methanone]
EC50 [1]: 0.0959 µM
EC50 [2]: 457 nM
EC50 [3]: 0.425 µM

Cc1c(CN2CCN(C(=O)OC(C)C)[C@@H](C)C2)cc(Cl)cc1Nc1nnc(C2(O)CC2)o1 [Example 45, isopropyl (2S)-4-[[5-chloro-3-[[5-(1-hydroxycyclopropyl)-1,3,4-oxadiazol-2-yl]amino]-2-methyl-phenyl]methyl]-2-methyl-piperazine-1-carboxylate]
EC50 [1]: 0.042 µM
EC50 [2]: 330 nM
EC50 [3]: 0.0399 µM

Cc1cc(CN2CCN(C(=O)OC(C)(C)C)[C@@H](C)C2)c(C)c(Nc2nnc(-c3nonc3C)o2)c1 [Example 34, tert-butyl (2S)-4-[[2,5-dimethyl-3-[[5-(4-methyl-1,2,5-oxadiazol-3-yl)-1,3,4-oxadiazol-2-yl]amino]phenyl]methyl]-2-methyl-piperazine-1-carboxylate]
EC50 [1]: 0.0246 µM
EC50 [2]: 83.7 nM
EC50 [3]: 0.0248 µM

Cc1cc(CN2CCN(C(=O)OC(C)C)[C@@H](C)C2)c(C)c(Nc2nnc([C@H](C)N)o2)c1 [Example 49, isopropyl (2S)-4-[[3-[[5-[(1S)-1-aminoethyl]-1,3,4-oxadiazol-2-yl]amino]-2,5-dimethyl-phenyl]methyl]-2-methyl-piperazine-1-carboxylate]
EC50 [1]: 0.0905 µM
EC50 [2]: 275 nM
EC50 [3]: 0.218 µM
